Test results from ChEMBL document CHEMBL5154828 (J Med Chem, 2022).

Columns and labels:
MCF7 = experiment: Antiproliferative activity against human MCF7 cells assessed as inhibition of cell growth measured after 6 days by cell titre glo luminescence assay; conditions: MCF7, 144 h
[1] = target: Voltage-gated inwardly rectifying potassium channel KCNH2 (Homo sapiens, UniProt Q12809); experiment: Inhibition of human ERG potassium channel expressed in CHO cells by patch-clamp assay; assay type: toxicity, cell-based
Chain of Voltage-gated inwardly rectifying potassium channel KCNH2 (Q12809 whole entry, the tested form may be a part): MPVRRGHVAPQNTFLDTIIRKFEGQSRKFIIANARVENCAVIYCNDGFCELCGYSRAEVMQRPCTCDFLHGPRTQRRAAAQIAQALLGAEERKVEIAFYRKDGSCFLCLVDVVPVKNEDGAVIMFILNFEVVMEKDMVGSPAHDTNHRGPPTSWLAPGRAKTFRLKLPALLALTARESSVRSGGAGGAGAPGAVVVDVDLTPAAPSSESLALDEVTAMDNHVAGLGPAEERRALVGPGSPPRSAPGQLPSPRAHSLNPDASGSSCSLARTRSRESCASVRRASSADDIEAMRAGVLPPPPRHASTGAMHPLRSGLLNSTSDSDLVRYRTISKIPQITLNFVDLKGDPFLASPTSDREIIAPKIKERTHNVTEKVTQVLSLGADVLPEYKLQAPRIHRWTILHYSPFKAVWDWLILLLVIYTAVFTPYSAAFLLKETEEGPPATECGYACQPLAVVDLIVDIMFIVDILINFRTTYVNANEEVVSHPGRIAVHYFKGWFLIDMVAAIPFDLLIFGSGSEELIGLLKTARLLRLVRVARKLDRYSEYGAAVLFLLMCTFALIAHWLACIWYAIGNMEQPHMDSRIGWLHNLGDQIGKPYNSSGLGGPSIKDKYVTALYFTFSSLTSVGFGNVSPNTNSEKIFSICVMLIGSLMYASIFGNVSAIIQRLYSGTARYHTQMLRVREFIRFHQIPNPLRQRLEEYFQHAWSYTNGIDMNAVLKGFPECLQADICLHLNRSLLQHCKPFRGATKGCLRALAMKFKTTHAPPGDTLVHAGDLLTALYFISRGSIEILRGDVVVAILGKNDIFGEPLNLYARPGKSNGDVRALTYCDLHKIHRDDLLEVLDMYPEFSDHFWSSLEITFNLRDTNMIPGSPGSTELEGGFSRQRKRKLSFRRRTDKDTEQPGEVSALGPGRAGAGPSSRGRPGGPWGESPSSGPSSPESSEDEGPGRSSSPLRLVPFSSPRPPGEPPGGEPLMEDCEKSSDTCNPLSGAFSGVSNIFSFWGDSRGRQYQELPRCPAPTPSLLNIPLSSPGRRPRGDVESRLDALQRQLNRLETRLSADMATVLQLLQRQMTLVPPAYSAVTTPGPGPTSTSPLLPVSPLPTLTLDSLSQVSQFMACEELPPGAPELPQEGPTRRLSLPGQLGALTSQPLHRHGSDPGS

Estrogen receptor [2] = target: T1, Estrogen receptor (Homo sapiens, UniProt P03372); experiment: Antagonist activity at ERalpha expressed in HEK293/Gal4 cells incubated for 24 hrs in presence of estradiol by luciferase reporter gene assay; assay type: cell-based
T1 sequence (P03372 whole entry): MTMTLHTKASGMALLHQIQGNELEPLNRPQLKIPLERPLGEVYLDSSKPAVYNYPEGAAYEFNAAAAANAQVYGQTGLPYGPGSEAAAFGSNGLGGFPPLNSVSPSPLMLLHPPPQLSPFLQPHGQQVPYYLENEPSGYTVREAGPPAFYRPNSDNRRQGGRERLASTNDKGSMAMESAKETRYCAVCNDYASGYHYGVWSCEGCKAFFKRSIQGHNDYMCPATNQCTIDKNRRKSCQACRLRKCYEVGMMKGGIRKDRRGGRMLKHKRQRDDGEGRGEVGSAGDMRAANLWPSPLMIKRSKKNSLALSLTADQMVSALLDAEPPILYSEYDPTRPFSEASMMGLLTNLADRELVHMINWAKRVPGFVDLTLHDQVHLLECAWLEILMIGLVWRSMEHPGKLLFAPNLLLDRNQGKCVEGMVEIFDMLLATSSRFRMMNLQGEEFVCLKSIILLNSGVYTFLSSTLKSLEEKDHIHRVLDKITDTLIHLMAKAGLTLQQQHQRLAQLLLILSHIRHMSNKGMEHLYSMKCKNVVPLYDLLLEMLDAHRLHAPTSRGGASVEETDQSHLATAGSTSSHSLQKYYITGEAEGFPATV

Estrogen receptor [3] = target: T1, Estrogen receptor; experiment: Induction of ERalpha degradation in human MCF7 cells incubated for 24 hrs by Western blot analysis; assay type: cell-based

SMILES | IC50 (MCF7) [nM] | IC50 [1] [nM] | IC50 (Estrogen receptor [2]) [nM] | EC50 (Estrogen receptor [3]) [nM]
FCCCN1CC(Oc2ccc(Oc3c(-c4ccc(F)cc4C4(F)CC4)sc4c3ccc3[nH]ncc34)cc2)C1 | 5.3 |  |  | 
CC(F)(F)c1cc(F)c(F)cc1-c1sc2c(ccc3[nH]ncc32)c1Oc1ccc(NC2CN(CCCF)C2)cc1 |  | 7400 |  | 
CC(C)(c1cc(F)ccc1-c1sc2c(ccc3[nH]ncc32)c1Oc1ccc(NC2CN(CCCF)C2)cc1)C(F)(F)F | 5.1 |  |  | 
CC(F)(F)c1cc(F)ccc1-c1sc2c(ccc3[nH]ncc32)c1Oc1ccc(/C=C/CN2CC(CF)C2)cc1 | 7.9 |  |  | 
COc1cc(Oc2c(-c3ccc(F)cc3CC(F)(F)F)sc3c2ccc2[nH]ncc23)ccc1NC1CN(CCCF)C1 | 1.7 |  | 1.1 | 2.2
CC(F)(F)c1cc(F)ccc1-c1sc2c(ccc3[nH]ncc32)c1Oc1ccc(OC2CN(CCCF)C2)cc1F | 7.8 |  |  | 
CC(F)(F)c1cc(F)c(F)cc1-c1sc2c(ccc3[nH]ncc32)c1Oc1ccc(OC2CN(CCCF)C2)cc1 | 1.6 |  | 2.5 | 3.4
CC(F)(F)c1cc(F)ccc1-c1sc2c(ccc3[nH]ncc32)c1Oc1ccc(NC2CN(CCCF)C2)c(C(F)(F)F)c1 | 6.2 |  |  | 
CC(F)(F)c1cc(F)ccc1-c1sc2cc(B(O)O)ccc2c1Oc1ccc(OCCN2CCC(F)CC2)cc1 | 19.4 |  |  | 
CC(F)(F)c1cc(F)ccc1-c1sc2c(ccc3[nH]ncc32)c1Oc1ccc(OCCN2CC(CF)C2)cc1 | 1.1 |  |  | 0.9
FCCCN1CC(Nc2ccc(Oc3c(-c4ccc(F)cc4CC(F)(F)F)sc4c3ccc3[nH]ncc34)cc2)C1 | 0.8 |  | 1.3 | 2.2
CC(F)(F)c1cc(F)ccc1-c1sc2c(ccc3[nH]ncc32)c1Oc1ccc(OCCN2CC(CC#N)C2)cc1 | 2.4 |  |  | 0.4
CC(c1cc(F)ccc1-c1sc2c(ccc3[nH]ncc32)c1Oc1ccc(OC2CN(CCCF)C2)cc1)C(F)(F)F (configuration not stated) | 2.2 |  |  | 2.5
CC(F)(F)c1cc(F)ccc1-c1sc2c(ccc3[nH]ncc32)c1Oc1ccc(OCCN2CC3C(C2)C3(F)F)cc1 (configuration not stated) | 7.6 |  |  | > 1000
FCC1CN(CCOc2ccc(Oc3c(-c4ccc(OC(F)(F)F)cc4F)sc4c3ccc3[nH]ncc34)cc2)C1 | 38.5 |  |  | 
CC(F)(F)c1cc(F)ccc1-c1sc2c(ccc3[nH]ncc32)c1Oc1ccc(S(=O)(=O)CCN2CC(CF)C2)cc1 | 5.9 |  |  | > 1000
CC(F)(F)c1cc(F)ccc1-c1sc2c(ccc3[nH]ncc32)c1Oc1ccc(CCN2CC(CF)C2)cc1 | 14.7 |  |  | 
CC(F)(F)c1cc(Cl)ccc1-c1sc2c(ccc3[nH]ncc32)c1Oc1ccc(OC[C@H]2CCCN2CCCF)cc1 | 8.3 |  |  | > 1000
CC(F)(F)c1cc(F)ccc1-c1sc2c(ccc3[nH]ncc32)c1Oc1c(F)cc(OCCN2CC(CF)C2)cc1F | 15.1 |  |  | 
CC(F)(F)c1cc(Cl)ccc1-c1sc2c(ccc3[nH]ncc32)c1Oc1ccc(S(=O)(=O)C2CN(CCCF)C2)cc1 | 33.9 |  |  | 
CC(F)(c1cc(F)ccc1-c1sc2c(ccc3[nH]ncc32)c1Oc1ccc(NC2CN(CCCF)C2)cc1)C(F)(F)F (configuration not stated) | 1.7 |  |  | 6.6
CC(F)(F)c1cc(F)ccc1-c1sc2cc(B(O)O)ccc2c1Oc1ccc(OCCN2CC(CC#N)C2)cc1 | 2.7 |  |  | 
COc1cc(Oc2c(-c3ccc(F)cc3C(C)(F)F)sc3c2ccc2[nH]ncc23)ccc1OC1CN(CCCF)C1 | 0.9 | > 40000 | 0.6 | 0.4
CC(F)(F)c1cc(Cl)ccc1-c1sc2cc(C(=O)O)ccc2c1Oc1ccc(OC2CN(CCCF)C2)cc1 | 34.7 |  |  | 3.9
CC(F)(F)c1cc(F)ccc1-c1sc2c(ccc3[nH]ncc32)c1Oc1ccc(OCCN2CC(CF)C2)cc1F | 3.3 |  |  | 
COc1cc(Oc2c(-c3cc(F)c(F)cc3C(C)(F)F)sc3c2ccc2[nH]ncc23)ccc1OC1CN(CCCF)C1 | 1.2 |  | 1.4 | 3

SMILES | IC50 (MCF7) [nM] | IC50 [1] [nM] | IC50 (Estrogen receptor [2]) [nM] | EC50 (Estrogen receptor [3]) [nM]
COc1cc(Oc2c(-c3ccc(F)cc3CC(F)(F)F)sc3c2ccc2[nH]ncc23)ccc1OC1CN(CCCF)C1 | 0.6 |  | 0.9 | 1.8
FCC1CN(CCOc2ccc(Oc3c(-c4ccc(F)cc4C4CC4)sc4c3ccc3[nH]ncc34)cc2)C1 | 8.8 |  |  | 
CC(F)(F)c1cc(F)ccc1-c1sc2c(ccc3[nH]ncc32)c1Oc1ccc(OC2CN(CCCF)C2)c(F)c1 | 0.8 |  | 1 | 1.3
CC(F)(F)c1cc(F)ccc1-c1sc2cc(B(O)O)ccc2c1Oc1ccc(OCCN2CC(CF)C2)cc1 | 1.9 |  |  | 1.2
Cc1cc(Cl)cc(C)c1-c1sc2c(ccc3[nH]ncc32)c1Oc1ccc(OCCN2CC(CF)C2)cc1 | 29.5 |  |  | 
CC(F)(F)c1cc(Cl)ccc1-c1sc2c(ccc3[nH]ncc32)c1Oc1ccc(O[C@@H]2CCN(CCCF)C2)cc1 | 2.6 |  |  | 0.7
CC(F)(F)c1cc(F)ccc1-c1sc2cc(B(O)O)ccc2c1Oc1ccc(OCCN2CC[C@@H](CF)C2)cc1 | 1.5 |  |  | 2.2
COc1cc(Oc2c(-c3ccc(F)cc3C(C)(F)F)sc3c2ccc2[nH]ncc23)ccc1NC1CN(CCCF)C1 |  | 11500 |  | 
CC(F)(F)c1cc(Cl)ccc1-c1sc2c(ccc3[nH]ncc32)c1Oc1ccc(N[C@@H]2CCN(CCCF)C2)cc1 | 0.6 |  |  | 1
CC(F)(F)c1cc(Cl)ccc1-c1sc2cc(C(=O)O)ccc2c1Oc1ccc(NC2CN(CCCF)C2)cc1 | 5.9 |  |  | 13.1
FCC1CN(CCOc2ccc(Oc3c(-c4ccc(C(F)(F)F)cc4F)sc4c3ccc3[nH]ncc34)cc2)C1 | 148 |  |  | 
CC(F)(F)c1cc(Cl)ccc1-c1sc2cc(C(=O)O)ccc2c1Oc1ccc(OCCN2CC(CF)C2)cc1 | 4.4 |  |  | 2.6
CC(F)(F)c1cc(Cl)ccc1-c1sc2c(ccc3[nH]ncc32)c1Oc1ccc(OC2CN(CCCC#N)C2)cc1 | 81.4 |  |  | 
CC(F)(F)c1cc(F)ccc1-c1sc2cc(B(O)O)ccc2c1Oc1ccc(/C=C/C(=O)O)cc1 | 23.9 |  |  | 
CC(C)(F)c1cc(F)ccc1-c1sc2c(ccc3[nH]ncc32)c1Oc1ccc(OC2CN(CCCF)C2)c(F)c1 |  | > 40000 |  | 
CC(F)(F)c1cc(F)ccc1-c1sc2c(ccc3[nH]ncc32)c1-c1ccc(OCCN2CC(CF)C2)cc1 | > 1000 |  |  | 
CC(F)(F)c1cc(F)ccc1-c1sc2cc3[nH]ncc3cc2c1Oc1ccc(/C=C/C(=O)O)cc1 | 483 |  |  | 
FCCCN1CC(Oc2ccc(Oc3c(-c4ccc(F)cc4CC(F)(F)F)sc4c3ccc3[nH]ncc34)cc2F)C1 |  | > 40000 |  | 
Oc1cccc(-c2sc3c(ccc4[nH]ncc43)c2Oc2ccc(OCCN3CC(CF)C3)cc2)c1 | > 1000 |  |  | 
CC(F)(F)c1cc(Cl)ccc1-c1sc2cc(C(=O)O)ccc2c1Oc1ccc(O[C@@H]2CCN(CCCF)C2)cc1 | 4.2 |  |  | 1
Cc1cc(F)cc(C)c1-c1sc2c(ccc3[nH]ncc32)c1Oc1ccc(OCCN2CC(CF)C2)cc1 | 27.3 |  |  | 
Cc1cc(C(F)(F)F)ncc1-c1sc2c(ccc3[nH]ncc32)c1Oc1ccc(OCCN2CC(CF)C2)cc1 | 623 |  |  | 
CC(F)(F)c1cc(F)ccc1-c1sc2c(ccc3[nH]ncc32)c1Oc1ccc(/C=C/C(=O)O)cc1 | 26.6 |  |  | 
CC(F)(F)c1cc(F)ccc1-c1sc2c(ccc3[nH]ncc32)c1Oc1ccc(COCCN2CC(CF)C2)cc1 | 4.7 |  |  | > 1000
CC(C)(F)c1cc(F)ccc1-c1sc2c(ccc3[nH]ncc32)c1Oc1ccc(NC2CN(CCCF)C2)cc1 |  | 6200 |  | 
